# Data from US20250057944A1, “OLIGOSACCHARIDE COMPLEXES AND USES” (BioNTech SE, priority 2021, published 2025).
# What was measured:
# [1] = Hydrodynamic diameter of complexes by dynamic light scattering; format: physicochemical
# Procedure: Sizes of complexes described in the present examples were analyzed by DynaPro PlateReader II, using dynamic light scattering (DLS) for calculating the hydrodynamic diameter of complexes. […] Ten acquisitions are recorded per well, each lasting 5 seconds.
# hPBMCs = test: Cytokine secretion by hPBMCs 24 h after transfection with modRNA formulations (MSD kit); format: cell-based, human; conditions: oligosaccharide:Tween40 1:0.5, modRNA, N/P 6, 24 hours (FIGS. 19A-D)
# Procedure: All groups received modRNA formulated at N/P 6. Formulations were complexed with RNA in MBG Buffer (final concentration 5% w/v Glucose, 10 mM MES, pH 6.1), at RNA final concentration of 0.15 mg/ml and the mixing ratio of the RNA containing solution and the oligosaccharide+Tween40 containing solution was 9:1 (v:v) for all the cases. IL-6, TNF-α, IL-1β and IFN-γ secretion after 24 hours of transfection of […] hPMBCs was evaluated in the supernatants using MSD Kit Standard Protocol.
# BALB/c mice [2] = test: Intramuscular vaccination with HA modRNA formulated with oligosaccharide+Tween40 (Example 10); conditions: mouse, in vivo
# BALB/c mice [3] = test: In-vivo luciferase expression in applied tissue after i.m. application of RNA complexes; conditions: N/P 6 (FIG. 7B)
# C57BL/6 IFNAR −/− mice = format: in vivo
# BALB/c mice [4] = conditions: mouse, in vivo
# BALB/c mice [5] = conditions: mouse, in vivo; remark: listed apart in the source
compound,measurement,setting,value
CCCCCCCCCC(=O)OC1C(OC(=O)CCCCCCCCC)[C@H](OC(=O)CCCCCCCCC)C(CSCCNC(=S)NCCN(C)C)O[C@@H]1O[C@H]1OC(CSCCNC(=S)NCCN(C)C)[C@@H](OC(=O)CCCCCCCCC)C(OC(=O)CCCCCCCCC)C1OC(=O)CCCCCCCCC (stereo partly drawn) [JLF41],Difference in particle size between N/P 1 and N/P 6,[1]; modRNA (FIG. 6A),greater difference in particle size
CCCCCCCCCC(=O)OC1C(OC(=O)CCCCCCCCC)[C@H](OC(=O)CCCCCCCCC)C(CSCCNC(=S)NCCn2ccnc2)O[C@@H]1O[C@H]1OC(CSCCNC(=S)NCCn2ccnc2)[C@@H](OC(=O)CCCCCCCCC)C(OC(=O)CCCCCCCCC)C1OC(=O)CCCCCCCCC (stereo partly drawn) [JLF110],"Level of secretion of pro-inflammatory cytokines, IL-6, TNF-α, IL-1β and IFN-γ",hPBMCs,medium levels of secretion
CCCCCCCCCC(=O)OC[C@@]1(O[C@H]2OC(CSCCNC(=S)NCCN3CCOCC3)[C@@H](OC(=O)CCCCCCCCC)[C@H](OC(=O)CCCCCCCCC)C2OC(=O)CCCCCCCCC)O[C@H](CSCCNC(=S)NCCN2CCOCC2)[C@@H](OC(=O)CCCCCCCCC)[C@@H]1OC(=O)CCCCCCCCC (stereo partly drawn) [JLF218],IgG concentration against HA,BALB/c mice [2],then by JLF99 and JLF218
CCCCCCCCCC(=O)OC1C(OC(=O)CCCCCCCCC)[C@H](OC(=O)CCCCCCCCC)C(CSCCNC(=S)NCCN2CCOCC2)O[C@@H]1O[C@H]1OC(CSCCNC(=S)NCCN2CCOCC2)[C@@H](OC(=O)CCCCCCCCC)C(OC(=O)CCCCCCCCC)C1OC(=O)CCCCCCCCC (stereo partly drawn) [JLF99],Hydrodynamic diameter,"[1]; saRNA, N/P 6 (FIG. 5A)",about 150 nm
same,modRNA expression (bioluminescence normalized to the JLF41-modRNA group),BALB/c mice [3],promising modRNA expression
same,Immunological response with CCHFV-Gc antigen,"C57BL/6 IFNAR −/− mice; JLF99+Tween40 1:0.5, 1.3 μg saRNA i.m., prime/boost d0/d28, N/P6",strong immunological response
same,Antibody level versus LNP,"C57BL/6 IFNAR −/− mice; mouse, in vivo",lower than the LNP
same,Antibody levels versus LNP benchmark,"C57BL/6 IFNAR −/− mice; mouse, in vivo",identical to the ones achieved by the LNP benchmark
same,T-cell responses against Gc-peptides,"C57BL/6 IFNAR −/− mice; mouse, in vivo",equally strong
same,CD4-CD8 response versus LNP benchmark,BALB/c mice [4],no significant difference
same,IgG against HA-antigen over the course of the experiment versus LNP benchmark,BALB/c mice [4],no apparent differences
same,Serological concentration of IgG at the end-point (day 49),BALB/c mice [4],comparable to the LNP group
same,Delivery of RNAs and immune response,BALB/c mice [5],functionally delivered all the RNAs upon i.m injection and elicited a strong immune response
CCCCCCCCCC(=O)OC1C(OC(=O)CCCCCCCCC)[C@H](OC(=O)CCCCCCCCC)C(CSCCNC(=S)NCCN2CCC(C(N)=O)CC2)O[C@@H]1O[C@H]1OC(CSCCNC(=S)NCCN2CCC(C(N)=O)CC2)[C@@H](OC(=O)CCCCCCCCC)C(OC(=O)CCCCCCCCC)C1OC(=O)CCCCCCCCC (stereo partly drawn) [JLF244],IgG concentration against HA,BALB/c mice [2],highest IgG concentration
same,"Level of secretion of pro-inflammatory cytokines, IL-6, TNF-α, IL-1β and IFN-γ",hPBMCs,highest level of secretion
